Test system: non-pancreatic lipase
Test: quantitative evaluation of influence of non-pancreatic lipase (measured value versus theoretical or reference value in heparin-administered samples)
Type: biochemical, human
Description: Next, the influence of the non-pancreatic lipase activity was obtained as follows on the assumption that the Liquitech reagent is not influenced by the non-pancreatic lipase. First, with respect to measured values of the enzyme activity obtained in samples other than the heparin-administered samples, a regression equation (an independent variable X: enzyme activity attained by Liquitech, a dependent variable Y: enzyme activity attained by the comparative example or the present example) was obtained. Next, with respect to each heparin-administered sample, the variable Y was calculated as a theoretical value by substituting the measured value of the enzyme activity obtained by the Liquitech for the variable X of the regression equation. Thereafter, with respect to each heparin-administered sample, the actually measured value of the enzyme activity obtained by the comparative example or the present example was divided by the theoretical value of the variable Y to calculate a relative percentage (%). It is noted that the acceptable range of the influence was provisionally set as within ±20% in reference to the package insert of “Liquitech Lipase Color II” describing that the accuracy is within ±15% of known activity.
In the present example, NaGDCA was selected as the conjugated bile acid and was combined with a non-conjugated bile acid, NaDCA, (mixed in equal amounts) to examine the behavior of a heparin-administered sample with the pH of a reaction solution changed to 7.1, 7.4 and 7.6. As the buffer solution, the BES buffer was used. As samples, (four) control samples (controls each containing a pancreatic lipase), (ten) normal samples and (nine) heparin-administered samples were used. As a comparative example, NaDCA (in a concentration of 30 mmol/L in the R-1) and NaTDCA (in a concentration of 10 mmol/L in the R-1) were used as the bile acid, and the reaction solution was adjusted to pH 7.95 (the Bicine buffer). Besides, “Liquitech Lipase Color II” manufactured by Roche Diagnostics was used for verifying the effect of the present example. “Liquitech Lipase Color II” was used in accordance with the package insert, and a special calibrator was used for calculating the enzyme activity. Thereafter, in the same manner as in Example 7, with respect to each heparin-administered sample, the actually measured value of the enzyme activity obtained by the comparative example or the present example was divided by the theoretical value to calculate a relative percentage (%). The influence of the non-pancreatic lipase activity and the acceptable range of the influence were the same as those in Example 7.
As a comparative example, NaDCA and NaTDCA (respectively in concentrations of 30 mmol/L and 10 mmol/L in the R-1) were used as the bile acids, and the reaction solution was adjusted to pH 7.95 by using the Bicine buffer to measure a heparin-administered sample. […] The bile acids were used in a total concentration in the R-1 of 40 mmol/L (each in 20 mmol/L in using two of them, and each in 13.3 mmol/L in using three of them). Besides, “Liquitech Lipase Color II” manufactured by Roche Diagnostics was used for verifying the effect of the present example. “Liquitech Lipase Color II” was used in accordance with the package insert, and a special calibrator was used for calculating the enzyme activity. In each of the comparative example and the present example, the lipase activity was calculated by using a molecular extinction coefficient of 6300 L/mol·cm of the reduced NADP. Thereafter, in the same manner as in Example 7, with respect to each heparin-administered sample, the actually measured value of the enzyme activity obtained by the comparative example or the present example was divided by the theoretical value to calculate a relative percentage (%). The influence of the non-pancreatic lipase activity and the acceptable range of the influence were calculated in the same manner as in Example 7.

C[C@H](CCC(=O)NCCS(=O)(=O)[O-])[C@H]1CC[C@H]2[C@@H]3CC[C@@H]4C[C@H](O)CC[C@]4(C)[C@H]3C[C@H](O)[C@]12C.[Na+] [NaTDCA, sodium taurodeoxycholate]
actually measured value/theoretical value (Table 4) (Average of Heparin 21-25, pH 6.2): 104.1% | actually measured value/theoretical value (Table 4) (Average of Heparin 21-25, pH 6.4): 102.7% | actually measured value/theoretical value (Table 4) (Average of Heparin 21-25, pH 6.6): 97.8% | actually measured value/theoretical value (Table 4) (Average of Heparin 21-25, pH 6.9): 94.9% | actually measured value/theoretical value (Table 4) (Average of Heparin 21-25, pH 7.2): 100.9% | actually measured value/theoretical value (Table 4) (Average of Heparin 21-25, pH 7.4): 119.2% | actually measured value/theoretical value (Table 4) (Average of Heparin 21-25, pH 7.6): 212.1% | actually measured values relative to theoretical values, average (heparin-administered samples, pH 7.4 or lower): smaller than 120.0% | actually measured value/theoretical value (Table 4) (sample Heparin 21, pH 6.2): 118.4% | actually measured value/theoretical value (Table 4) (sample Heparin 21, pH 6.4): 110.6% | actually measured value/theoretical value (Table 4) (sample Heparin 21, pH 6.6): 109.4% | actually measured value/theoretical value (Table 4) (sample Heparin 21, pH 6.9): 99.9% | actually measured value/theoretical value (Table 4) (sample Heparin 21, pH 7.2): 99.1% | actually measured value/theoretical value (Table 4) (sample Heparin 21, pH 7.4): 118.3% | actually measured value/theoretical value (Table 4) (sample Heparin 21, pH 7.6): 167.2% | actually measured value/theoretical value (Table 4) (sample Heparin 22, pH 6.2): 100.6% | actually measured value/theoretical value (Table 4) (sample Heparin 22, pH 6.4): 100.8% | actually measured value/theoretical value (Table 4) (sample Heparin 22, pH 6.6): 93.6% | actually measured value/theoretical value (Table 4) (sample Heparin 22, pH 6.9): 86.0% | actually measured value/theoretical value (Table 4) (sample Heparin 22, pH 7.2): 98.5% | actually measured value/theoretical value (Table 4) (sample Heparin 22, pH 7.4): 107.8% | actually measured value/theoretical value (Table 4) (sample Heparin 22, pH 7.6): 162.0% | actually measured value/theoretical value (Table 4) (sample Heparin 23, pH 6.2): 112.9% | actually measured value/theoretical value (Table 4) (sample Heparin 23, pH 6.4): 115.8% | actually measured value/theoretical value (Table 4) (sample Heparin 23, pH 6.6): 111.4% | actually measured value/theoretical value (Table 4) (sample Heparin 23, pH 6.9): 114.9% | actually measured value/theoretical value (Table 4) (sample Heparin 23, pH 7.2): 110.5% | actually measured value/theoretical value (Table 4) (sample Heparin 23, pH 7.4): 129.2% | actually measured value/theoretical value (Table 4) (sample Heparin 23, pH 7.6): 281.9% | actually measured value/theoretical value (Table 4) (sample Heparin 24, pH 6.2): 95.4% | actually measured value/theoretical value (Table 4) (sample Heparin 24, pH 6.4): 91.7% | actually measured value/theoretical value (Table 4) (sample Heparin 24, pH 6.6): 83.0% | actually measured value/theoretical value (Table 4) (sample Heparin 24, pH 6.9): 84.4% | actually measured value/theoretical value (Table 4) (sample Heparin 24, pH 7.2): 96.0% | actually measured value/theoretical value (Table 4) (sample Heparin 24, pH 7.4): 113.2% | actually measured value/theoretical value (Table 4) (sample Heparin 24, pH 7.6): 215.2% | actually measured value/theoretical value (Table 4) (sample Heparin 25, pH 6.2): 93.1% | actually measured value/theoretical value (Table 4) (sample Heparin 25, pH 6.4): 94.7% | actually measured value/theoretical value (Table 4) (sample Heparin 25, pH 6.6): 91.7% | actually measured value/theoretical value (Table 4) (sample Heparin 25, pH 6.9): 89.5% | actually measured value/theoretical value (Table 4) (sample Heparin 25, pH 7.2): 100.2% | actually measured value/theoretical value (Table 4) (sample Heparin 25, pH 7.4): 127.4% | actually measured value/theoretical value (Table 4) (sample Heparin 25, pH 7.6): 234.4%

C[C@H](CCC(=O)NCC(=O)[O-])[C@H]1CC[C@H]2[C@@H]3[C@H](O)C[C@@H]4C[C@H](O)CC[C@]4(C)[C@H]3CC[C@]12C.[Na+] [NaGCDCA, sodium glycochenodeoxycholate]
Measured value/theoretical value (Table 5) (sample Heparin 31, pH 7.0): 98.4% | Measured value/theoretical value (Table 5) (sample Heparin 31, pH 7.95): 311.8% | Measured value/theoretical value (Table 5) (sample Heparin 32, pH 7.0): 98.5% | Measured value/theoretical value (Table 5) (sample Heparin 32, pH 7.95): 492.8% | Measured value/theoretical value (Table 5) (sample PRECINORM, pH 7.0): 99.3% | Measured value/theoretical value (Table 5) (sample PRECINORM, pH 7.95): 107.6% | Measured value/theoretical value (Table 5) (sample PRECIPATH, pH 7.0): 100.9% | Measured value/theoretical value (Table 5) (sample PRECIPATH, pH 7.95): 111.6% | Measured value/theoretical value (Table 5) (sample Pool 1, pH 7.0): 101.8% | Measured value/theoretical value (Table 5) (sample Pool 1, pH 7.95): 99.4% | Measured value/theoretical value (Table 5) (sample Pool 2, pH 7.0): 89.8% | Measured value/theoretical value (Table 5) (sample Pool 2, pH 7.95): 126.2% | Measured value/theoretical value (Table 5) (sample Seraclear LP, pH 7.0): 87.0% | Measured value/theoretical value (Table 5) (sample Seraclear LP, pH 7.95): 60.4%

Reference: patent US10000791B2, “Measurement method for human pancreatic lipase activity” (ASAHI KASEI PHARMA CORPORATION, priority 2013, dated 2018)
